Test results reported in US8349827B2, “Substituted dipyrido-pyrimido-diazepine and benzo-pyrido-pyrimido compounds” (ArQule, Inc., priority 2009, dated 2013).

Tests used:
DLD-1 = test: MTS assay, DLD-1 cells; format: cell-based; settings: Homo sapiens, 72 hours
Procedure: (§1) Cells were maintained at 37° C., 5% CO2 in DMEM media supplemented with 1% fetal bovine serum, penicillin/streptomycin and fungizone (Invitrogen). Cells were seeded into 96-well tissue culture plates at 3000 per well and cultured at 37° C. for 18 hours. Test compounds were dissolved and diluted to 300× in DMSO then diluted 1:40 in DMEM. Cells were incubated with test compounds for 72 hours followed by incubation with tetrazolium compound (3-(4,5-dimethylthiazol-2-yl)-5-(3-carboxymethoxyphenyl)-2-(4-sulfophenyl)-2H-tetrazolium, inner salt; MTS) and the electron coupling reagent, phenazine methosulfate (PMS) for 4 hours. […] The ability of compounds to inhibit cell growth in this assay is correlated with the reduction of dehydrogenase enzyme activity found in metabolically active cells. The measurement of the absorbance of the formazan was assessed using an ENVISION™ (Perkin Elmer) microplate reader at 492 nm. The calculated IC50 value is the concentration of the test compound that causes a 50% decrease in the absorbance.

KATO III = test: MTS assay, KATO III cells; format: cell-based; settings: Homo sapiens, 72 hours
Procedure: as §1

MDA-MB-231 = test: MTS assay, MDA-MB-231 cells; format: cell-based; settings: Homo sapiens, 72 hours
Procedure: as §1

NCI-H1299 = test: MTS assay, NCI-H1299 cells; format: cell-based; settings: Homo sapiens, 72 hours
Procedure: as §1

PACA-2 = test: MTS assay, PACA-2 cells; format: cell-based; settings: 72 hours
Procedure: as §1

PC-3 = test: MTS assay, PC-3 cells; format: cell-based; settings: Homo sapiens, 72 hours
Procedure: as §1

ABL T315I = ABL T315I (Homo sapiens, UniProt P00519, T315I); test: ABL Kinase Activity Assay (Elisa), ABL T315I; format: biochemical; settings: ATP 100 μM, read-out: Abl(T315I) Enzymetic assay (Elisa) % inhibition
Procedure: (§2) ABL Kinase Activity Assay
(§3) The disclosed compounds were assayed for their ability to inhibit the activity of ABL kinase. Nunc Maxisorb plates were coated with streptavidin by overnight incubation with 100 μL per well of 1 μg/ml streptavidin in DPBS. Prior to the experiment, the plates were washed with TBST (3×200 μL) and blocked for at least 3 hours by adding 150 μL of 5% BSA/TBST. The plates were washed with TBST (3×200 μL/well) and left dry immediately before the capture step.
(§4) The disclosed test compounds and controls (Gleevec) were prepared using the following assay buffer@10× desired final concentration (50 mM Tris pH 7.0, 0.02 mg/ml BSA, 10 mM MgCl2, 0.1 mM Na3VO4, 1 mM EGTA, 0.01% NP-40, 1 mM DTT in 10% glycerol/water). In a reaction plate, 5 μl test article (or control) and 30 μl ABL or ABL T315I (0.089 nM final concentration, in the above buffer) were added rapidly. The plate was incubated for 20 minutes. To the reaction plate was added ATP (100 μM final concentration) and AblTide (128 nM final concentration) in a volume of 15 μl. The plate was incubated at room temperature for one hour.
(§5) From the reaction plate, 40 μl was transferred to the streptavidin coated plate. The capture plate was incubated at room temperature for 30 minutes, then washed 3× with TBST. To the capture plate was added 100 μL/well of cell signaling anti-phospho tyrosine at a dilution of 1:3000 in 2% BSA/TBST. The plate was incubated for two hours at room temperature then washed 3× with TBST. To the capture plate was added 100 μL/well of alkaline phosphatase tagged goat anti mouse antibody at a dilution of 1:4000 in 2% BSA/TBST. The plate was incubated for one hour at room temperature then washed 3× with TBST.
(§6) The fluorescent readout was initiated by the addition of 100 μl/well of Attophos reagent (6 mg/10 mL). The reading was done on the Perkin Elmer Envision system.

ABL = ABL (Homo sapiens, UniProt P00519); test: ABL Kinase Activity Assay (Elisa), ABL; format: biochemical; settings: ATP 100 μM, read-out: Abl Enzymetic assay (Elisa) % inhibition
Procedure: as §2, §3, §4, §5, §6

inhibition at 10 µM (ABL T315I) [%] | inhibition at 10 µM (ABL) [%] | SMILES | inhibition at 10 µM (DLD-1) [%] | inhibition at 10 µM (KATO III) [%] | inhibition at 10 µM (MDA-MB-231) [%] | inhibition at 10 µM (NCI-H1299) [%] | inhibition at 10 µM (PACA-2) [%] | inhibition at 10 µM (PC-3) [%]
80 to 100 | 80 to 100 | Fc1ccc(CNc2ncc3c(n2)-c2cccnc2Nc2cnccc2-3)c(Cl)c1 [Example 10, N-(2-chloro-4-fluorobenzyl)-9H-dipyrido[2,3-b:4′,3′-f]pyrimido[4,5-d]azepin-2-amine] | – | – | < 50 | < 50 | – | < 50
80 to 100 | 80 to 100 | c1ccc(-c2cccc(CNc3ncc4c(n3)-c3cccnc3Nc3cnccc3-4)c2)cc1 [Example 45, N-(biphenyl-3-ylmethyl)-9H-dipyrido[2,3-b:4′,3′-f]pyrimido[4,5-d]azepin-2-amine] | 80 to 100 | 80 to 100 | – | 50 to 79 | 80 to 100 | < 50
80 to 100 | 80 to 100 | CN(C)CCCCCNc1ncc2c(n1)-c1cccnc1Nc1cnccc1-2 [Example 48, N′-9H-dipyrido[2,3-b:4′,3′-f]pyrimido[4,5-d]azepin-2-yl-N,N-dimethylpentane-1,5-diamine] | < 50 | < 50 | 50 to 79 | – | < 50 | 50 to 79

The next lines start with the compound.

SMILES | inhibition at 10 µM (ABL T315I) [%] | inhibition at 10 µM (ABL) [%] | inhibition at 10 µM (DLD-1) [%] | inhibition at 10 µM (KATO III) [%] | inhibition at 10 µM (MDA-MB-231) [%] | inhibition at 10 µM (NCI-H1299) [%] | inhibition at 10 µM (PACA-2) [%] | inhibition at 10 µM (PC-3) [%]
FC(F)(F)c1ccccc1CNc1ncc2c(n1)-c1cccnc1Nc1cnccc1-2 [Example 3, N-[2-(trifluoromethyl)benzyl]-9H-dipyrido[2,3-b:4′,3′-f]pyrimido[4,5-d]azepin-2-amine] | 80 to 100 | 50 to 79 | < 50 | < 50 | < 50 | 50 to 79 | < 50 | < 50
O=C1CCCN1CCCNc1ncc2c(n1)-c1cccnc1Nc1cnccc1-2 [Example 4, 1-[3-(9H-dipyrido[2,3-b:4′,3′-f]pyrimido[4,5-d]azepin-2-ylamino)propyl]pyrrolidin-2-one] | 80 to 100 | 50 to 79 | < 50 | < 50 | < 50 | < 50 | – | < 50
CC(CO)Nc1ncc2c(n1)-c1cccnc1Nc1cnccc1-2 (stereo not shown) [Example 17, 2-(9H-dipyrido[2,3-b:4′,3′-f]pyrimido[4,5-d]azepin-2-ylamino)propan-1-ol] | 80 to 100 | 80 to 100 | – | < 50 | – | – | – | < 50
CCC(CC)Nc1ncc2c(n1)-c1cccnc1Nc1cnccc1-2 [Example 18, N-(1-ethylpropyl)-9H-dipyrido[2,3-b:4′,3′-f]pyrimido[4,5-d]azepin-2-amine] | 80 to 100 | 80 to 100 | < 50 | 50 to 79 | < 50 | < 50 | – | < 50
COc1cc(CCNc2ncc3c(n2)-c2cccnc2Nc2cnccc2-3)cc(OC)c1 [Example 38, N-[2-(3,5-dimethoxyphenyl)ethyl]-9H-dipyrido[2,3-b:4′,3′-f]pyrimido[4,5-d]azepin-2-amine] | < 50 | 50 to 79 | < 50 | < 50 | – | – | < 50 | < 50
Brc1ccc(CCNc2ncc3c(n2)-c2cccnc2Nc2cnccc2-3)cc1 [Example 46, N-[2-(4-bromophenyl)ethyl]-9H-dipyrido[2,3-b:4′,3′-f]pyrimido[4,5-d]azepin-2-amine] | 80 to 100 | 80 to 100 | 50 to 79 | 50 to 79 | – | < 50 | < 50 | < 50
